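Protocol summary: plate cells (96-well), add compound at 5 concentrations, incubate 48 h, interpolate endpoints linearly. GI50 is the concentration that inhibits growth by half. TGI denotes the concentration required for complete inhibition of growth.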
How the values were obtained:
Assay in all cases: DTP human tumour cell line panel, 48 h
NCI/ADR-RES ovarian = tested on: NCI/ADR-RES ovarian
OVCAR-3 ovarian = tested on: OVCAR-3 ovarian
RPMI-8226 leukemia = tested on: RPMI-8226 leukemia
NCI-H226 lung = tested on: NCI-H226 lung
MDA-MB-435 = tested on: MDA-MB-435
SF-539 CNS = tested on: SF-539 CNS
UACC-257 melanoma = tested on: UACC-257 melanoma
PC-3 prostate = tested on: PC-3 prostate
SNB-75 CNS = tested on: SNB-75 CNS
IGROV1 ovarian = tested on: IGROV1 ovarian
MDA-MB-231 breast = tested on: MDA-MB-231 breast
HS 578T breast = tested on: HS 578T breast
SK-OV-3 ovarian = tested on: SK-OV-3 ovarian
RXF 393 renal = tested on: RXF 393 renal
MCF7 breast = tested on: MCF7 breast
SF-295 CNS = tested on: SF-295 CNS
HL-60(TB) leukemia = tested on: HL-60(TB) leukemia
SW-620 colon = tested on: SW-620 colon
SR leukemia = tested on: SR leukemia
MALME-3M melanoma = tested on: MALME-3M melanoma
COLO 205 colon = tested on: COLO 205 colon
HCT-116 colon = tested on: HCT-116 colon
LOX IMVI melanoma = tested on: LOX IMVI melanoma
CCRF-CEM leukemia = tested on: CCRF-CEM leukemia
SF-268 CNS = tested on: SF-268 CNS
T-47D breast = tested on: T-47D breast
SK-MEL-2 melanoma = tested on: SK-MEL-2 melanoma
SN12C renal = tested on: SN12C renal
MOLT-4 leukemia = tested on: MOLT-4 leukemia
SK-MEL-5 melanoma = tested on: SK-MEL-5 melanoma
HCT-15 colon = tested on: HCT-15 colon
OVCAR-5 ovarian = tested on: OVCAR-5 ovarian
EKVX NSCLC = tested on: EKVX NSCLC
786-0 renal = tested on: 786-0 renal
HT29 colon = tested on: HT29 colon
BT-549 breast = tested on: BT-549 breast
NCI-H23 lung = tested on: NCI-H23 lung
NCI-H460 lung = tested on: NCI-H460 lung
KM12 colon = tested on: KM12 colon
TK-10 renal = tested on: TK-10 renal
HOP-92 NSCLC = tested on: HOP-92 NSCLC
SK-MEL-28 melanoma = tested on: SK-MEL-28 melanoma
U251 CNS = tested on: U251 CNS
HCC-2998 colon = tested on: HCC-2998 colon
M14 melanoma = tested on: M14 melanoma
HOP-62 NSCLC = tested on: HOP-62 NSCLC
ACHN renal = tested on: ACHN renal
CAKI-1 renal = tested on: CAKI-1 renal
DU-145 prostate = tested on: DU-145 prostate
UACC-62 melanoma = tested on: UACC-62 melanoma
OVCAR-4 ovarian = tested on: OVCAR-4 ovarian
A498 renal = tested on: A498 renal
A549 NSCLC = tested on: A549 NSCLC
OVCAR-8 ovarian = tested on: OVCAR-8 ovarian
SNB-19 CNS = tested on: SNB-19 CNS
UO-31 renal = tested on: UO-31 renal

`C#C[C@]1(O)CC[C@H]2[C@@H]3CC=C4c5sc(Nc6ncccc6C)nc5CC[C@]4(C)[C@H]3CC[C@@]21C` was tested, and the GI50 (NCI/ADR-RES ovarian) was 1810 nM, the TGI (NCI/ADR-RES ovarian) was 6150 nM and the GI50 (OVCAR-3 ovarian) was 2040 nM. For the same compound, the TGI (OVCAR-3 ovarian) was 5290 nM, the GI50 (RPMI-8226 leukemia) was 264 nM and the TGI (RPMI-8226 leukemia) was 681 nM. The GI50 (NCI-H226 lung) was 1490 nM, the TGI (NCI-H226 lung) was 3400 nM and the GI50 (MDA-MB-435) was 2080 nM. For the same compound, the TGI (MDA-MB-435) was 6390 nM, the GI50 (SF-539 CNS) was 335 nM and the TGI (SF-539 CNS) was 1310 nM. For the same compound, the GI50 (UACC-257 melanoma) was 1640 nM, the TGI (UACC-257 melanoma) was 4290 nM and the GI50 (PC-3 prostate) was 603 nM. For the same compound, the TGI (PC-3 prostate) was 8670 nM, the GI50 (SNB-75 CNS) was 568 nM and the TGI (SNB-75 CNS) was 5440 nM. It also gave a GI50 (IGROV1 ovarian) of 2450 nM, a TGI (IGROV1 ovarian) of 8960 nM and a GI50 (MDA-MB-231 breast) of 1650 nM. For the same compound, the TGI (MDA-MB-231 breast) was 4390 nM, the GI50 (HS 578T breast) was 424 nM and the TGI (HS 578T breast) was 2300 nM. The GI50 (SK-OV-3 ovarian) was 1850 nM, the TGI (SK-OV-3 ovarian) was 4660 nM and the GI50 (RXF 393 renal) was 150 nM. The TGI (RXF 393 renal) was 456 nM, the GI50 (MCF7 breast) was 1050 nM and the TGI (MCF7 breast) was 3150 nM. It also gave a GI50 (SF-295 CNS) of 246 nM, a TGI (SF-295 CNS) of 694 nM and a GI50 (HL-60(TB) leukemia) of 1400 nM. The TGI (HL-60(TB) leukemia) was 3760 nM, the GI50 (SW-620 colon) was 1530 nM and the TGI (SW-620 colon) was 3100 nM. For the same compound, the GI50 (SR leukemia) was 493 nM, the TGI (SR leukemia) was 2460 nM and the GI50 (MALME-3M melanoma) was 1780 nM. The TGI (MALME-3M melanoma) was 4850 nM, the GI50 (COLO 205 colon) was 1800 nM and the TGI (COLO 205 colon) was 3900 nM. For the same compound, the GI50 (HCT-116 colon) was 1040 nM, the TGI (HCT-116 colon) was 2510 nM and the GI50 (LOX IMVI melanoma) was 1320 nM. It also gave a TGI (LOX IMVI melanoma) of 2720 nM, a GI50 (CCRF-CEM leukemia) of 1010 nM and a TGI (CCRF-CEM leukemia) of 4460 nM. It also gave a GI50 (SF-268 CNS) of 1860 nM, a TGI (SF-268 CNS) of 7300 nM and a GI50 (T-47D breast) of 2110 nM. It also gave a TGI (T-47D breast) of 8520 nM, a GI50 (SK-MEL-2 melanoma) of 1280 nM and a TGI (SK-MEL-2 melanoma) of 4350 nM. It also gave a GI50 (SN12C renal) of 1830 nM, a TGI (SN12C renal) of 4160 nM and a GI50 (MOLT-4 leukemia) of 561 nM. The TGI (MOLT-4 leukemia) was 2700 nM, the GI50 (SK-MEL-5 melanoma) was 1570 nM and the TGI (SK-MEL-5 melanoma) was 2960 nM. The GI50 (HCT-15 colon) was 1360 nM, the TGI (HCT-15 colon) was 3000 nM and the GI50 (OVCAR-5 ovarian) was 1830 nM. The TGI (OVCAR-5 ovarian) was 4390 nM, the GI50 (EKVX NSCLC) was 1340 nM and the TGI (EKVX NSCLC) was 9530 nM. The GI50 (786-0 renal) was 355 nM, the TGI (786-0 renal) was 1430 nM and the GI50 (HT29 colon) was 1600 nM. It also gave a TGI (HT29 colon) of 3990 nM, a GI50 (BT-549 breast) of 1170 nM and a TGI (BT-549 breast) of 4120 nM. It also gave a GI50 (NCI-H23 lung) of 1770 nM, a TGI (NCI-H23 lung) of 6240 nM and a GI50 (NCI-H460 lung) of 1270 nM. For the same compound, the TGI (NCI-H460 lung) was 2860 nM, the GI50 (KM12 colon) was 1660 nM and the TGI (KM12 colon) was 4550 nM. It also gave a GI50 (TK-10 renal) of 2560 nM, a TGI (TK-10 renal) of 6820 nM and a GI50 (HOP-92 NSCLC) of 2310 nM. For the same compound, the TGI (HOP-92 NSCLC) was 5990 nM, the GI50 (SK-MEL-28 melanoma) was 425 nM and the TGI (SK-MEL-28 melanoma) was 1640 nM. It also gave a GI50 (U251 CNS) of 753 nM, a TGI (U251 CNS) of 3340 nM and a GI50 (HCC-2998 colon) of 2530 nM. The TGI (HCC-2998 colon) was 6710 nM, the GI50 (M14 melanoma) was 1290 nM and the TGI (M14 melanoma) was 3430 nM. For the same compound, the GI50 (HOP-62 NSCLC) was 1350 nM, the TGI (HOP-62 NSCLC) was 3310 nM and the GI50 (ACHN renal) was 1850 nM. The TGI (ACHN renal) was 10700 nM, the GI50 (CAKI-1 renal) was 1350 nM and the TGI (CAKI-1 renal) was 3280 nM. It also gave a GI50 (DU-145 prostate) of 2240 nM, a TGI (DU-145 prostate) of 7460 nM and a GI50 (UACC-62 melanoma) of 1550 nM. It also gave a TGI (UACC-62 melanoma) of 3430 nM, a GI50 (OVCAR-4 ovarian) of 1900 nM and a TGI (OVCAR-4 ovarian) of 11300 nM. For the same compound, the GI50 (A498 renal) was 454 nM, the TGI (A498 renal) was 1910 nM and the GI50 (A549 NSCLC) was 2050 nM. For the same compound, the TGI (A549 NSCLC) was 12800 nM, the GI50 (OVCAR-8 ovarian) was 1990 nM and the TGI (OVCAR-8 ovarian) was 13600 nM. The GI50 (SNB-19 CNS) was 1880 nM, the TGI (SNB-19 CNS) was 6580 nM and the GI50 (UO-31 renal) was 1230 nM. For the same compound, the TGI (UO-31 renal) was 2820 nM.
